Results reported in patent US4068074A, “Cephalosporin derivatives having at the 3-position of the cephem ring a heterocyclic thiomethyl group with a carboxy or sulfo group and at the 7-position of the cephem ring an α-heterocylic acylaminophenyl-acetamide group” (priority 1974, dated 1978).
Converted amounts (≈) assume the structure as drawn. Where two headings read alike, the source gives them in different places.

What was measured:
[1] = Solubility of salts in water (Table 2); assay type: physicochemical; details: for Solubility (appearance of solution): sodium salt, in water; for solubility: disodium salt, water, showing pH 7.4, read-out: Solubility: disodium salt dissolved in water in an amount of
Excerpt: An advantage of the compounds of this invention is that the salts, for example, sodium salts of these compounds are readily soluble in water at pH of living bodies, which makes them suitable for injections at high concentration. The solubility of these compounds are illustrated in Table 2 together with a control example.

Proteus vulgaris OXK US = test: MIC against bacteria (Table I), strain (1); assay type: cell-based; details: (1) Proteus vulgaris OXK US; read-out: MIC
Excerpt: (§1) Now, for illustrating the excellent pharmacological effects of the compounds of this invention, the values of MIC (γ/ml.) of the compounds against various bacteria are shown in Table 1, in which the compounds of this invention used are shown by example numbers.
(1) Proteus vulgaris OXK US

Shigella sonnei II 37148 = test: MIC against bacteria (Table I), strain (12); assay type: cell-based; details: II37148; (12) Shigella sonnei II 37148; read-out: MIC
Excerpt: as §1

[2] = test system: Pseudomonas aeruginosa 99 (Gentamycin resistant); test: MIC against bacteria (Table I), strain (5); assay type: cell-based; details: (5) Pseudomonas aeruginosa 99 (Gentamycin resistant); read-out: MIC
Excerpt: as §1
(5) Pseudomonas aeruginosa 99 (Gentamycin resistant)

[3] = test system: Proteus mirabilis IXM OM-19; test: MIC against bacteria (Table I), strain (3); assay type: cell-based; details: IXMOM19; (3) Proteus mirabilis IXM OM-19; read-out: MIC
Excerpt: as §1
(3) Proteus mirabilis IXM OM-19

Proteus vulgaris 0X 19US = test: MIC against bacteria (Table I), strain (2); assay type: cell-based; details: 0X19US; (2) Proteus vulgaris 0X 19US; read-out: MIC
Excerpt: as §1
(2) Proteus vulgaris 0X 19US

[4] = test system: Pseudomonas aeruginosa ATCC 8689; test: MIC against bacteria (Table I), strain (4); assay type: cell-based; details: ATCC8689; (4) Pseudomonas aeruginosa ATCC 8689; read-out: MIC
Excerpt: as §1
(4) Pseudomonas aeruginosa ATCC 8689

[5] = test system: Staphylococcus Shimanishi; test: MIC against bacteria (Table I), strain (17); assay type: cell-based
Excerpt: as §1
(17) Staphylococcus Shimanishi

Salmonella typhi H901 W = test: MIC against bacteria (Table I), strain (9); assay type: cell-based; details: Salmonella enterica, TYPHI
Excerpt: as §1
(9) Salmonella typhi H901 W

[6] = test system: Micrococcus flavus ATCC 10240; test: MIC against bacteria (Table I), strain (15); assay type: cell-based; details: ATCC10240
Excerpt: as §1
(15) Micrococcus flavus ATCC 10240

[7] = test system: Bacillus subtilis ATCC 6633; test: MIC against bacteria (Table I), strain (14); assay type: cell-based; details: ATCC6633; (14) Bacillus subtilis ATCC 6633; read-out: MIC
Excerpt: as §1
(14) Bacillus subtilis ATCC 6633

[8] = test system: Shigella flexneri 2a 1675; test: MIC against bacteria (Table I), strain (11); assay type: cell-based; details: 2A1675; (11) Shigella flexneri 2a 1675; read-out: MIC
Excerpt: as §1

Staphylococcus Onuma = test: MIC against bacteria (Table I), strain (18); assay type: cell-based
Excerpt: as §1
(18) Staphylococcus Onuma

[9] = test system: Escherichia coli kauffmann 0-1; test: MIC against bacteria (Table I), strain (7); assay type: cell-based; details: Escherichia coli
Excerpt: as §1
(7) Escherichia coli kauffmann 0-1

[10] = test system: Staphylococcus aureus 209P; test: MIC against bacteria (Table I), strain (16); assay type: cell-based
Excerpt: as §1
(16) Staphylococcus aureus 209P

[11] = test system: Klebsiella pneumoniae ATCC 10031; test: MIC against bacteria (Table I), strain (8); assay type: cell-based; details: ATCC10031
Excerpt: as §1
(8) Klebsiella pneumoniae ATCC 10031

[12] = test system: Bacillus megatherium 10778; test: MIC against bacteria (Table I), strain (13); assay type: cell-based; details: (13) Bacillus megatherium 10778; read-out: MIC
Excerpt: as §1

[13] = test system: Psuedomonas ovalis IMA 1002; test: MIC against bacteria (Table I), strain (6); assay type: cell-based; details: (6) Psuedomonas ovalis IMA 1002; read-out: MIC
Excerpt: as §1
(6) Psuedomonas ovalis IMA 1002

[14] = Residual antibacterial activity after incubation with 90% plasma (Table 4); assay type: in vitro ADME, male Sprague-Dowley rat; details: 90% rat plasma
Description: (§2) The relation between the reaction period of time and the antibacterial activity (residual activity, %) when these compounds are incubated with the plasma and the liver homogenate of a male Sprague-Dowley rat is shown in Table 4. The residual antibacterial activity was measured by a thin-layer cup method according to Bacillus subtilis ATCC 6633.
A*Residual activity (%) when incubated with 90% plasma.

Salmonella enteritidis = test: MIC against bacteria (Table I), strain (10); assay type: cell-based; details: Salmonella enterica
Excerpt: as §1
(10) Salmonella enteritidis

[15] = Residual antibacterial activity after incubation with 10% liver homogenate (Table 4); assay type: in vitro ADME, male Sprague-Dowley rat; details: 10% rat liver homogenate
Description: as §2
B*Residual activity (%) when incubated with 10% liver homogenate.

[16] = (17) Staphylococcus Shimanishi, read-out: MIC
[17] = (15) Micrococcus flavus ATCC 10240, read-out: MIC
[18] = (18) Staphylococcus Onuma, read-out: MIC
[19] = (8) Klebsiella pneumoniae ATCC 10031, read-out: MIC
[20] = (16) Staphylococcus aureus 209P, read-out: MIC
[21] = (10) Salmonella enteritidis, read-out: MIC

SMILES | MIC (Proteus vulgaris OXK US) [µg/mL] | MIC (Shigella sonnei II 37148) [µg/mL] | MIC [2] [µg/mL] | MIC [3] [µg/mL] | MIC (Proteus vulgaris 0X 19US) [µg/mL] | MIC [4] [µg/mL] | MIC [5, 16] [µg/mL] | MIC (Salmonella typhi H901 W) [µg/mL] | MIC [6, 17] [µg/mL] | MIC [7] [µg/mL] | MIC [8] [µg/mL] | solubility [1] [mg/mL] | MIC (Staphylococcus Onuma; [18]) [µg/mL] | MIC [9] [µg/mL] | MIC [11, 19] [µg/mL] | MIC [12] [µg/mL] | MIC [13] [µg/mL] | MIC [10, 20] [µg/mL] | MIC (Salmonella enteritidis; [21]) [µg/mL] | other results
Cc1nnc(SCC2=C(C(=O)O)N3C(=O)[C@@H](NC(=O)[C@H](NC(=O)c4cnccc4O)c4ccccc4)[C@H]3SC2)s1 [Control sample, reference compound] |  |  |  |  |  |  |  |  |  |  |  |  |  |  |  |  |  |  |  | Solubility (appearance of solution) ([1]; at 0.5%): clearly; Solubility (appearance of solution) ([1]; at 1%): became slight turbid; Solubility (appearance of solution) ([1]; at 5%): became turbid; Solubility (appearance of solution) ([1]; at 10%): became thickly turbid; Solubility (appearance of solution) ([1]; at 20%): gelled
O=C(O)CCc1nnc(SCC2=C(C(=O)O)N3C(=O)[C@@H](NC(=O)[C@H](NC(=O)c4cnccc4O)c4ccccc4)[C@H]3SC2)s1 [Example 6, 7-[D-α-(4-hydroxynicotinoylamido)-α-phenylacetamido]-3-(5-carboxyethyl-1,3,4-thiadiazol-2-yl)thiomethyl-Δ^3-cephem-4-carboxylic acid] | < 0.09 | 3.13 (≈ 4.77 µM) | 6.25 (≈ 9.52 µM) | 0.39 (≈ 0.594 µM) | < 0.09 | 12.5 (≈ 19 µM) | 6.25 (≈ 9.52 µM) | 1.56 (≈ 2.38 µM) | 6.25 (≈ 9.52 µM) | 0.39 (≈ 0.594 µM) | 0.78 (≈ 1.19 µM) | > 200 | 12.5 (≈ 19 µM) | 3.13 (≈ 4.77 µM) | 6.25 (≈ 9.52 µM) | 0.39 (≈ 0.594 µM) | 6.25 (≈ 9.52 µM) |  |  | MIC ([10]; Staphylococcus aureus, 209P): 1.56 µg/mL (≈ 2.38 µM); remaining at 0.25 h ([14]; 90% plasma, 15 minute): 92%; remaining at 0.5 h ([14]; 90% plasma, 30 minute): 102%; remaining at 1.5 h ([14]; 90% plasma, 90 minute): 102%; Residual activity ([14]; 0 minute): 100%; MIC (Salmonella enteritidis; ENTERITIDIS): 0.39 µg/mL (≈ 0.594 µM); remaining at 0.25 h ([15]; 10% liver homogenate, 15 minute, read-out: Residual activity): 95.7%; remaining at 0.5 h ([15]; 10% liver homogenate, 30 minute, read-out: Residual activity): 89.1%; remaining at 1.5 h ([15]; 10% liver homogenate, 90 minute, read-out: Residual activity): 91.3%; Residual activity ([15]; 0 minute): 100%
O=C(O)CSc1nsc(SCC2=C(C(=O)O)N3C(=O)[C@@H](NC(=O)[C@H](NC(=O)c4cnccc4O)c4ccccc4)[C@H]3SC2)n1 [Example 13, 7-[D-α-(4-hydroxynicotinoylamido)-α-phenylacetamido]-3-(3-carboxymethylthio-1,2,4-thiadiazol-5yl)thiomethyl-Δ^3 cephem-4-carboxylic acid] | < 0.09 | 3.13 (≈ 4.64 µM) | 6.25 (≈ 9.26 µM) | 0.39 (≈ 0.578 µM) | 0.78 (≈ 1.16 µM) | 12.5 (≈ 18.5 µM) | 6.25 (≈ 9.26 µM) | 1.56 (≈ 2.31 µM) | 6.25 (≈ 9.26 µM) | 0.39 (≈ 0.578 µM) | 1.56 (≈ 2.31 µM) | > 200 | 6.25 (≈ 9.26 µM) | 3.13 (≈ 4.64 µM) |  | 0.39 (≈ 0.578 µM) | 12.5 (≈ 18.5 µM) | 0.78 (≈ 1.16 µM) | 0.39 (≈ 0.578 µM) | MIC ([11]; Klebsiella pneumoniae): 3.13 µg/mL (≈ 4.64 µM)
O=C(O)CSc1cc(SCC2=C(C(=O)O)N3C(=O)[C@@H](NC(=O)[C@H](NC(=O)c4cnccc4O)c4ccccc4)[C@H]3SC2)ncn1 [Example 16] | < 0.09 | 6.25 (≈ 9.35 µM) | 25 (≈ 37.4 µM) | 0.19 (≈ 0.284 µM) | < 0.09 | 25 (≈ 37.4 µM) |  | 1.56 (≈ 2.33 µM) |  | 0.19 (≈ 0.284 µM) | 3.13 (≈ 4.68 µM) | > 200 |  | 6.25 (≈ 9.35 µM) | 12.5 (≈ 18.7 µM) | 0.39 (≈ 0.583 µM) | 25 (≈ 37.4 µM) | 0.78 (≈ 1.17 µM) | 0.78 (≈ 1.17 µM) | MIC ([5]; Staphylococcus): 6.25 µg/mL (≈ 9.35 µM); MIC ([6]; Micrococcus flavus): 3.13 µg/mL (≈ 4.68 µM); MIC (Staphylococcus Onuma; Staphylococcus): 6.25 µg/mL (≈ 9.35 µM)
